Experimental data taken from ChEMBL document CHEMBL5236579, “Hydrophobicity Determines the Bacterial Killing Rate of α-Helical Antimicrobial Peptides and Influences the Bacterial Resistance Development” (J Med Chem, 2022).
Values after ≈ are worked out from the molar mass of the structure shown. Active and inactive are the calls of the source. The rule behind the calls is not given here. Where a SMILES comes first, the peptide text is derived from it.

Tests used:
Cell membrane [1] = test: Induction of outer membrane permeabilization in Vibrio parahaemolyticus ATCC17802 assessed as increase fluorescence intensity at 0.5 to 2 times of MIC by NPN uptake assay; format: cell membranes; details: time <= 15.0 min, TDE = time-dependent effect
Staphylococcus aureus [2] = test: Antimicrobial activity against clinical isolates Staphylococcus aureus by two fold broth microdilution method; format: functional
Vibrio parahaemolyticus [3] = test: Induction of morphological changes in Vibrio parahaemolyticus ATCC17802 assessed as surface fibrosis incubated at 5 times MIC and measured after 60 mins by scanning electron microscopy based analysis; format: functional, organism-based
Cell membrane [4] = test: Binding affinity to Vibrio parahaemolyticus ATCC17802 cell membrane assessed as increase in fluorescence intensity measured after 120 mins by flow cytometry analysis (reference value: 1.88%); format: cell membranes
Cell membrane [5] = test: Binding affinity to Vibrio parahaemolyticus ATCC17802 cell membrane assessed as increase in fluorescence intensity measured after 30 mins by flow cytometry analysis (reference value: 1.85%); format: cell membranes
Cell membrane [6] = test: Induction of cytoplasmic membrane permeabilization in Vibrio parahaemolyticus […] assessed as calcein transmembrane diffusion into interior of gaint unilamellar vesicles by measuring time to equilibrium between inside and outside of vesicles at 2 ug/mL by confocal microscopy based calcein-AM leakage assay; format: cell membranes; details: dose 2.0 µg/ml
Vibrio parahaemolyticus [7] = test: Antimicrobial activity against Vibrio parahaemolyticus ATCC17802 by two fold broth microdilution method; format: functional
Lipopolysaccharide (LPS) [8] = test: Binding affinity to Escherichia coli LPS assessed as LPS neutralizing activity measured after 5 mins by LPS neutralization assay
Vibrio parahaemolyticus [9] = test: Induction of bacterial resistance in Vibrio parahaemolyticus ATCC17802 assessed as fold increase in MIC treated over 30 serial passages measured after 24 hrs; format: functional
HaCaT = test: Cytotoxicity against human HaCaT cells incubated for 48 hrs by MTT assay; format: toxicity, cell-based; details: dose < 250 µg/ml
[10] = Hemolytic activity in human erythrocytes measured after 30 mins; format: toxicity, cell-based; details: erythrocyte, 0.5 h
Cell membrane [11] = test: Induction of inner membrane permeabilization in Vibrio parahaemolyticus ATCC17802 at 5 times MIC measured upto 200 mins by propidium iodide penetration assay; format: cell membranes
Vibrio parahaemolyticus [12] = test: Induction of morphological changes in Vibrio parahaemolyticus ATCC17802 assessed as massive cell collapse incubated at 5 times MIC and measured after 60 mins by scanning electron microscopy based analysis; format: functional, organism-based
Vibrio parahaemolyticus [13] = test: Bactericidal activity against Vibrio parahaemolyticus ATCC17802 assessed as killing rate at 0.5 X MIC by measuring time limit of detection by bacterial killing kinetic assay; format: functional
Escherichia coli [14] = test: In vivo antibacterial activity against Escherichia coli ATCC25722 infected in Balb/c mouse model assessed as reduction in bacterial CFU count on skin at 20 ug/ml incubated for 6 hrs post infection and measured after 2 hrs post compound treatment; format: functional, organism-based; details: dose 20.0 µg/ml, time 8.0 hrs
Bacillus cereus = test: Antimicrobial activity against clinical isolates Bacillus cereus by two fold broth microdilution method; format: functional
Cell membrane [15] = test: Induction of outer membrane permeabilization in Vibrio parahaemolyticus ATCC17802 assessed as increase fluorescence intensity measured upto 15 mins by NPN uptake assay; format: cell membranes
Cell membrane [16] = test: Induction of outer membrane permeabilization in Escherichia coli ATCC25722 assessed as increase fluorescence intensity at 0.5 to 2 times of MIC by NPN uptake assay; format: cell membranes; details: time <= 15.0 min, TDE = time-dependent effect
Staphylococcus aureus [17] = test: Antimicrobial activity against Staphylococcus aureus ATCC25923 by two fold broth microdilution method; format: functional; details: read-out: MIC
Cell membrane [18] = test: Induction of inner membrane permeabilization in Vibrio parahaemolyticus ATCC17802 assessed as calcein leakage at 5 times MIC by calcein-AM leakage assay; format: cell membranes; details: time <= 200.0 min, TDE = time-dependent effect
Cell membrane [19] = test: Induction of outer membrane permeabilization in Escherichia coli ATCC25722 assessed as increase fluorescence intensity measured upto 15 mins by NPN uptake assay; format: cell membranes
Escherichia coli [20] = test: Antimicrobial activity against Escherichia coli ATCC27622 by two fold broth microdilution method; format: functional
Lipopolysaccharide (LPS) [21] = test: Binding affinity to Escherichia coli LPS assessed as dissociation constant measured upto 600 sec by surface plasmon resonance imaging method
Escherichia coli [22] = test: In vivo antibacterial activity against Escherichia coli ATCC25722 infected in Balb/c mouse model assessed as reduction in bacterial CFU count on skin at 20 ug/ml applied 4 hrs after infection and measured after 120 mins; format: functional, organism-based; details: dose 20.0 µg/ml
[23] = Effect on morphological changes in POPC/POPG (3:1) bilayer membrane assessed as formation of bulge aggregates by measuring the height of bulges at 2 ug/ml incubated for 40 mins under neutral pH and low ionic strength by atomic force microscopic analysis; format: cell membranes; details: Cell membrane, dose 2.0 µg/ml
Vibrio parahaemolyticus [24] = test: Induction of morphological changes in Vibrio parahaemolyticus ATCC17802 assessed as cellular inclusion leakage incubated at 5 times MIC and measured after 60 mins by scanning electron microscopy based analysis; format: functional, organism-based
Peritoneal macrophage = test: Cytotoxicity against mouse peritoneal macrophage cells incubated for 48 hrs by MTT assay; format: toxicity, cell-based; details: dose < 250 µg/ml
Cell membrane [25] = test: Induction of inner membrane permeabilization in Vibrio parahaemolyticus ATCC17802 assessed as increase in PI fluorescence intensity at 5 times MIC by propidium iodide penetration assay; format: cell membranes; details: time <= 200.0 min
Cell membrane [26] = test: Induction of bacterial inner membrane permeabilization in Vibrio parahaemolyticus ATCC17802 assessed as calcein leakage from large unilamellar vesicles liposomes at 5 times MIC by fluorescence based microplate reader assay; format: cell membranes; details: time <= 60.0 min, TDE = time-dependent effect
Lipopolysaccharide (LPS) [27] = test: Binding affinity to Escherichia coli LPS assessed as LPS neutralizing activity measured after 60 mins by LPS neutralization assay
Cell membrane [28] = test: Induction of bacterial inner membrane permeabilization in Vibrio parahaemolyticus ATCC17802 assessed as calcein leakage from large unilamellar vesicles liposomes at 5 times MIC measured upto 60 mins by fluorescence based microplate reader assay; format: cell membranes
Vibrio parahaemolyticus [29] = test: Induction of morphological changes in Vibrio parahaemolyticus ATCC17802 assessed as massive cell collapse incubated at 5 times MIC and measured after 15 mins by scanning electron microscopy based analysis; format: functional, organism-based
Vibrio parahaemolyticus [30] = test: Induction of bacterial resistance in Vibrio parahaemolyticus ATCC17802 assessed as change in MIC treated over 30 serial passages measured after 24 hrs; format: functional, organism-based
Vibrio parahaemolyticus [31] = test: Induction of morphological changes in Vibrio parahaemolyticus ATCC17802 assessed as cellular inclusion leakage incubated at 5 times MIC and measured after 15 mins by scanning electron microscopy based analysis; format: functional, organism-based
Vibrio parahaemolyticus [32] = test: Induction of morphological changes in Vibrio parahaemolyticus ATCC17802 assessed as surface fibrosis incubated at 5 times MIC and measured after 15 mins by scanning electron microscopy based analysis; format: functional, organism-based

Row | Compound | Activity (Cell membrane [1]) | MIC (Staphylococcus aureus [2]) [µg/mL] | Activity (Cell membrane [4]) [%] | Activity (Cell membrane [5]) [%] | TIME (Cell membrane [6]) [h] | MIC (Vibrio parahaemolyticus [7]) [µg/mL] | Activity (Lipopolysaccharide (LPS) [8]) | Activity (HaCaT) | Activity [10] | Activity (Cell membrane [11]) | Time (Vibrio parahaemolyticus [13]) [min] | Activity (Escherichia coli [14]) | MIC (Bacillus cereus) [µg/mL] | Activity (Cell membrane [15]) | Activity (Cell membrane [16]) | MIC (Staphylococcus aureus [17]) [µg/mL] | Activity (Cell membrane [18]) | Activity (Cell membrane [19]) | MIC (Escherichia coli [20]) [µg/mL] | Activity (Cell membrane [25]) | other results
1 | CC[C@H](C)[C@H](NC(=O)[C@H](CC(C)C)NC(=O)[C@H](CCCNC(=N)N)NC(=O)[C@H](CC(C)C)NC(=O)[C@H](CC(C)C)NC(=O)[C@H](CCCCN)NC(=O)[C@H](CCCCN)NC(=O)[C@H](Cc1ccccc1)NC(=O)[C@H](CC(C)C)NC(=O)CNC(=O)[C@@H](N)CC(C)C)C(=O)N[C@@H](CCCCN)C(=O)N[C@@H](CCCCN)C(=O)NCC(=O)N[C@@H](Cc1ccccc1)C(=O)N[C@@H](CCCCN)C(=O)N[C@@H](CCCCN)C(=O)O (H-LGLFKKLLRLIKKGFKK-OH) | Tde | 18.8 (≈ 9.23 µM) | 99.4 | 64.3 | < 0.25 | 4.69 (≈ 2.31 µM) | inactive | Dose-Dependent Effect | Toxic | Active | 60 | Active | 4.69 (≈ 2.31 µM) | Dose-Dependent Effect | Tde | 2.34 (≈ 1.15 µM) | Tde | Dose-Dependent Effect | 9.38 (≈ 4.62 µM) | Active | Activity (Vibrio parahaemolyticus [3]): Active; fold change (FC) (Vibrio parahaemolyticus [9]): 2; Activity (Vibrio parahaemolyticus [12]): Active; Kd (Lipopolysaccharide (LPS) [21]): 49.4 µM; Activity (Escherichia coli [22]): Active; Activity [23]: 1 nm; Activity (Vibrio parahaemolyticus [24]): Active; Activity (Peritoneal macrophage): Dose-Dependent Effect
2 | CC[C@H](C)[C@H](NC(=O)[C@H](CC(C)C)NC(=O)[C@H](CCCNC(=N)N)NC(=O)[C@H](CC(C)C)NC(=O)[C@H](CC(C)C)NC(=O)[C@H](CCCCN)NC(=O)[C@H](CCCCN)NC(=O)[C@H](Cc1ccccc1)NC(=O)[C@H](CC(C)C)NC(=O)CNC(=O)[C@@H](N)CC(C)C)C(=O)N[C@@H](CCCCN)C(=O)N[C@@H](CCCCN)C(=O)NCC(=O)N[C@@H](Cc1ccccc1)C(=O)N[C@@H](CCCCN)C(=O)N[C@@H](CC(C)C)C(=O)O (H-LGLFKKLLRLIKKGFKL-OH) |  | 9.38 (≈ 4.65 µM) |  |  |  | 4.69 (≈ 2.33 µM) |  |  |  | Active | 30 |  | 9.38 (≈ 4.65 µM) |  |  | 1.17 (≈ 0.58 µM) | Tde |  | 9.38 (≈ 4.65 µM) | Active | Activity (Cell membrane [26]): Tde
3 | CC[C@H](C)[C@H](NC(=O)[C@H](CC(C)C)NC(=O)[C@H](CCCNC(=N)N)NC(=O)[C@H](CC(C)C)NC(=O)[C@H](CC(C)C)NC(=O)[C@H](CCCCN)NC(=O)[C@H](CCCCN)NC(=O)[C@H](Cc1ccccc1)NC(=O)[C@H](CC(C)C)NC(=O)CNC(=O)[C@@H](N)CC(C)C)C(=O)N[C@@H](CC(C)C)C(=O)N[C@@H](CCCCN)C(=O)NCC(=O)N[C@@H](Cc1ccccc1)C(=O)N[C@@H](CCCCN)C(=O)N[C@@H](CC(C)C)C(=O)O (H-LGLFKKLLRLILKGFKL-OH) | Tde | 9.38 (≈ 4.69 µM) | 88.1 | 98.5 | < 0.25 | 4.69 (≈ 2.34 µM) | Active | Dose-Dependent Effect | Toxic | Active | 15 | Active | 9.38 (≈ 4.69 µM) | Dose-Dependent Effect | Tde | 1.17 (≈ 0.585 µM) | Tde | Dose-Dependent Effect | 9.38 (≈ 4.69 µM) | Active | Activity (Lipopolysaccharide (LPS) [27]): Active; Activity (Cell membrane [28]): Active; Activity (Vibrio parahaemolyticus [29]): Active; Activity (Vibrio parahaemolyticus [30]): inactive; Activity (Vibrio parahaemolyticus [31]): Active; Kd (Lipopolysaccharide (LPS) [21]): 82.1 µM; Activity (Escherichia coli [22]): Active; Activity [23]: 20 nm; Activity (Peritoneal macrophage): Dose-Dependent Effect; Activity (Vibrio parahaemolyticus [32]): Active
